Data: patent publication US20090215783A1, “COMPOSITION FOR INDUCTION OR INHIBITION OF STEM CELL DIFFERENTIATION” (CHOONGWAE PHARMA CORPORATION, priority 2006, published 2009)

Tests used:
[1] = test system: Mouse embryonic stem (ES) cells, TC1; assay: Cardiomyogenesis modulating activity assay (alpha-MHC promoter EGFP, embryoid bodies, FACS/fluorescence microscopy); type: cell-based; settings: embryoid bodies treated for 5 days, FACS
Procedure: a. Cell culture: Mouse embryonic stem (ES) cells, TC1 derived from 129/S6 strain were cultured on irradiated feeder layer in the culture medium which is high-glucose DMEM (Gibco) BRL, Germany) supplemented with 15% FBS (Hyclone), 0.1 mM beta-mercaptoethanol, […] sodium pyruvate, 1 mM L-glutamine and 1× non-essential amino acids.
b. Establishment of alpha-MHC stably transformed ES cell line: A construct (FIG. 8) containing 1.8 kb promoter sequence of the mouse alpha-MHC gene between EcoRI and SalI sites of pEGFP-1 (Clontech Laboratories, Inc, CA, USA) was linearized at XhoI site, and was introduced into mouse ES cells, TC1, using the Gene Pulser II (BioRad, MA). A selection medium containing G418 was applied for two weeks from 24 hours after electroporation. The selected ES cell clones were harvested and expanded on the feeder cell layer. The green fluorescence-expressing clones when differentiated into cardiomyocytes were used in this experiment.
c. Cardiomyogenesis modulating activity assay: Embryoid body (EB) was formed by hanging drop culture using about a number of 600 (six hundred) ES cells for two days and it was further expanded by culturing in suspension condition on a Petri-dish for another two days. Then each EB was plated on a well of 96 well culture plates. Test compounds were dissolved in DMSO and diluted with culture media (final 0.05% DMSO) and EB was treated with test compound for 5 days. Culture medium was changed every three days after plating. Expression level of EGFP was measured with FACS (Beckman). For FACS analysis, differentiating cells were dissociated with trypsin. For the determination of the extent of differentiation, EB was observed and photographed with an inverted fluorescence microscope (Zeiss, Germany). Number of beating EBs was counted under the microscope and recorded once daily.

[2] = test system: human bone marrow derived-mesenchymal stem cells (hBMMSC); assay: Osteogenesis modulating activity assay by test compound alone (ALP activity); type: cell-based; settings: Homo sapiens, 168 h; hBMMSC, 20 μM test compound alone, six to seven days; read-out: Osteogenesis: fold change of ALP activity compared with DMSO control
Procedure: Cell culture: Human bone marrow derived-mesenchymal stem cells (hBMMSC) were isolated from normal subjects.
Osteogenesis modulating activity assay by test compound alone: hBMMSC were cultivated in the culture medium and cells were seeded into 96-well culture plates and test compounds were dissolved in DMSO and diluted with culture media (final 0.01% DMSO) and added into the media (final concentration of test compound was 20 μM) and cultured in the CO2 incubator (37° C., 5% CO2). Culture medium was changed every two days with fresh one and compound was treated again whenever medium was changed. Six to seven days after incubation, Alkaline phosphatase activity of cell lysates was measured by colorimetry. For the determination of mineralization within the cells, Von Kossa staining or Alizarin Red S assay was performed 10-14 days after incubation.

Row | Compound | Cardiomyogenesis: fold change of EGFP expression level compared with DMSO control [1] | fold induction at 20 µM [2]
1 | COc1ccc(CN2C[C@H]3N(C(=O)CN(C)N3C(=O)NCc3ccccc3)[C@@H](C(C)C)C2=O)cc1 [#21] | 0.62 fold | 1.21
2 | CCCCNC(=O)N1[C@H]2CN([C@@H](C)c3ccccc3)C(=O)[C@H](CCC(=O)O)N2C(=O)CN1Cc1ccc(C)cc1 [#50] | 0.26 fold | 
3 | CC(C)C[C@H]1C(=O)N(CC(=O)N(c2ccccc2)c2cccc(Cl)c2)C[C@H]2N1C(=O)CN(C)N2C(=O)NCc1ccccc1 [#4] | 0.40 fold | 0.59
4 | CN1CC(=O)N2[C@@H](Cc3ccc(OCc4ccccc4)cc3)C(=O)N(CCc3ccccc3)C[C@@H]2N1C(=O)NCc1ccccc1 [#35] | 1.03 fold | 0.94
5 | CCCN1CC(=O)N2C(CN(CCC(C)C)C(=O)[C@@H]2CC(C)C)N1C(=O)NCc1ccccc1 (some centres unmarked) [#93] | 0.57 fold | 0.63
6 | O=C1[C@H](c2ccccc2)N2C(=O)CN(Cc3ccccc3)N(C(=O)NCc3ccccc3)[C@H]2CN1Cc1cccc(F)c1 [#60] | 1.23 fold | 
7 | CCCCNC(=O)N1[C@H]2CN([C@@H](C)c3ccccc3)C(=O)[C@H](Cc3ccccc3)N2C(=O)CN1Cc1ccc(C)cc1 [#47] | 2.32 fold | 
8 | CCCCNC(=O)N1[C@H]2CN([C@@H](C)c3ccccc3)C(=O)[C@H](Cc3ccc(O)cc3)N2C(=O)CN1Cc1ccc(C)cc1 [#45] |  | 1.08
9 | O=C(O)C[C@H]1C(=O)N(Cc2cccc(F)c2)C[C@H]2N1C(=O)CN(Cc1ccccc1)N2C(=O)NCc1ccccc1 [#59] | 0.48 fold | 
10 | O=C1[C@H](Cc2ccccc2)N2C(=O)CN(Cc3ccccc3)N(C(=O)NCc3ccccc3)[C@H]2CN1Cc1cccc(F)c1 [#56] | 1.08 fold | 
11 | O=C1[C@H](COCc2ccccc2)N2C(=O)CN(Cc3ccc(F)cc3)N(C(=O)NCc3ccccc3)C2CN1Cc1cccc(C(F)(F)F)c1 (some centres unmarked) [#62] | 0.89 fold | 
12 | CCC[C@H]1C(=O)N(Cc2cccc(F)c2)C[C@H]2N1C(=O)CN(Cc1ccccc1)N2C(=O)NCc1ccccc1 [#58] | 1.91 fold | 
13 | O=C1[C@H](Cc2ccc(O)cc2)N2C(=O)CN(Cc3ccccc3)N(C(=O)NCc3ccccc3)C2CN1Cc1cccc(F)c1 (some centres unmarked) [#53] | 1.95 fold | 
14 | CCCCNC(=O)N1[C@H]2CN([C@@H](C)c3ccccc3)C(=O)[C@H](CCC)N2C(=O)CN1Cc1ccc(C)cc1 [#48] | 1.02 fold | 
15 | O=C1[C@@H](Cc2ccccc2)N2C(=O)CN(Cc3ccc(F)cc3)N(C(=O)NCc3ccccc3)[C@@H]2CN1Cc1cccc(C(F)(F)F)c1 [#61] | 1.06 fold | 
16 | CCCCNC(=O)N1[C@H]2CN([C@@H](C)c3ccccc3)C(=O)[C@H](CC(=O)O)N2C(=O)CN1Cc1ccc(C)cc1 [#49] | 1.14 fold | 
17 | C#CCN1CC(=O)N2C(Cc3ccc(Cl)cc3)C(=O)N(CCCCCCC)C[C@@H]2N1C(=O)NCc1ccccc1 (some centres unmarked) [#52] | 1.99 fold | 
18 | CC(C)C[C@H]1C(=O)N(Cc2cccc(F)c2)C[C@H]2N1C(=O)CN(Cc1ccccc1)N2C(=O)NCc1ccccc1 [#54] | 1.42 fold | 
19 | C=CCN1CC(=O)N2[C@@H](Cc3ccc(O)cc3)C(=O)N(Cc3ccc(F)c4scnc34)C[C@@H]2N1C(=O)NCc1ccccc1F [#14] |  | 0.29
